Assay results published in ChEMBL document CHEMBL4385672, “Design, synthesis and biological evaluation of 2-(3,4-dimethoxyphenyl)-6 (1,2,3,6-tetrahydropyridin-4-yl)imidazo[1,2-a]pyridine analogues as antiproliferative agents” (Bioorg Med Chem Lett, 2019).
Calls of active or inactive are those of the source. No cut-off for these calls is given here.

Legend:
[1] = system: B16-F10; experiment: Antiproliferative activity against mouse B16F10 cells at 10 to 100 uM incubated for 48 hrs by MTT assay; assay type: functional, cell-based
[2] = system: A549; experiment: Antiproliferative activity against human A549 cells at 10 to 100 uM incubated for 48 hrs by MTT assay; assay type: functional, cell-based
[3] = system: HeLa; experiment: Antiproliferative activity against human HeLa cells at 10 to 100 uM incubated for 48 hrs by MTT assay; assay type: functional, cell-based
[4] = Selectivity index, ratio of IC50 for cytotoxicity in HEK293 cells assessed as reduction in cell viability incubated for 48 hrs by MTT assay to IC50 for antiproliferative activity against mouse B16F10 cells incubated for 48 hrs by MTT assay; assay type: toxicity, cell-based; details: read-out: Ratio IC50
[5] = system: HEK293; experiment: Cytotoxicity in HEK293 cells assessed as reduction in cel viability incubated for 48 hrs by MTT assay; assay type: cell-based; details: Homo sapiens, HEK293, 48 h
[6] = system: HeLa; experiment: Antiproliferative activity against human HeLa cells incubated for 48 hrs by MTT assay; assay type: functional, cell-based
[7] = Selectivity index, ratio of IC50 for cytotoxicity in HEK293 cells assessed as reduction in cell viability incubated for 48 hrs by MTT assay to IC50 for antiproliferative activity against human A549 cells incubated for 48 hrs by MTT assay; assay type: toxicity, cell-based; details: read-out: Ratio IC50
[8] = system: B16-F10; experiment: Antiproliferative activity against mouse B16F10 cells incubated for 48 hrs by MTT assay; assay type: functional, cell-based; details: B16-F10, 48 h
[9] = system: A549; experiment: Antiproliferative activity against human A549 cells incubated for 48 hrs by MTT assay; assay type: functional, cell-based; details: A549, 48 h
[10] = Selectivity index, ratio of IC50 for cytotoxicity in HEK293 cells assessed as reduction in cell viability incubated for 48 hrs by MTT assay to IC50 for antiproliferative activity against human HeLa cells incubated for 48 hrs by MTT assay; assay type: toxicity, cell-based; details: read-out: Ratio IC50
[11] = system: B16-F10; experiment: Induction of apoptosis in mouse B16F10 cells assessed as early apoptosis cells level at 7 uM incubated for 48 hrs by Annexin V-FITC and PI staining based flow cytometry (reference value: 0.03 +/- 0.013%); assay type: functional
[12] = system: B16-F10; experiment: Induction of apoptosis in mouse B16F10 cells assessed as late apoptosis cells level at 7 uM incubated for 48 hrs by Annexin V-FITC and PI staining based flow cytometry (reference value: 0.02 +/- 0.21%); assay type: functional

COc1ccc(-c2cn3cc(C4=CCN(S(=O)(=O)c5ccccc5[N+](=O)[O-])CC4)ccc3n2)cc1OC
Activity [1]: Active
Activity [2]: Active
Activity [3]: Active

COc1ccc(-c2cn3cc(C4=CCNCC4)ccc3n2)cc1OC
Activity [1]: Active
Activity [2]: Active
Activity [3]: Active

COc1ccc(-c2cn3cc(C4=CCN(S(=O)(=O)c5ccc(C)cc5)CC4)ccc3n2)cc1OC
Activity [1]: Active
Activity [2]: Active
Activity [3]: Active

COc1ccc(-c2cn3cc(C4=CCN(S(=O)(=O)c5ccccc5)CC4)ccc3n2)cc1OC
selectivity ratio at 48 h [4]: 10 to 14
IC50 [5]: 65.6 µM
IC50 [6]: 12.6 µM
Activity [1]: Active
selectivity ratio at 48 h [7]: 10 to 14
IC50 [8]: 13.2 µM
Activity [2]: Active
Activity [3]: Active
IC50 [9]: 7.66 µM
selectivity ratio at 48 h [10]: 10 to 14

COc1ccc(-c2cn3cc(C4=CCN(S(=O)(=O)c5ccc(Cl)s5)CC4)ccc3n2)cc1OC
Activity [1]: Active
Activity [2]: Active
Activity [3]: Active

COc1ccc(-c2cn3cc(C4=CCN(C(=O)c5ccccc5C(F)(F)F)CC4)ccc3n2)cc1OC
selectivity ratio at 48 h [4]: 10 to 14
IC50 [5]: 82.9 µM
IC50 [6]: 7.95 µM
Activity [1]: Active
selectivity ratio at 48 h [7]: 10 to 14
IC50 [8]: 8.11 µM
Activity [2]: Active
Activity [3]: Active
IC50 [9]: 2.55 µM
selectivity ratio at 48 h [10]: 10 to 14

COc1ccc(-c2cn3cc(C4=CCN(S(=O)(=O)c5ccc(Cl)cc5)CC4)ccc3n2)cc1OC
Activity [1]: Active
Activity [2]: Active
Activity [3]: Active

COc1ccc(-c2cn3cc(C4=CCN(C(=O)c5cocn5)CC4)ccc3n2)cc1OC
Activity [1]: Active
Activity [2]: Active
Activity [3]: Active

COc1ccc(-c2cn3cc(C4=CCN(C(=O)c5ccco5)CC4)ccc3n2)cc1OC
Activity [1]: Active
Activity [2]: Active
Activity [3]: Active

COc1ccc(-c2cn3cc(C4=CCN(S(=O)(=O)c5ccc(C(F)(F)F)cc5)CC4)ccc3n2)cc1OC
Activity [1]: Active
Activity [2]: Active
Activity [3]: Active

COc1ccc(-c2cn3cc(C4=CCN(S(=O)(=O)c5ccc(F)cc5)CC4)ccc3n2)cc1OC
Activity [1]: Active
Activity [2]: Active
Activity [3]: Active

COc1ccc(-c2cn3cc(C4=CCN(S(=O)(=O)CC(C)C)CC4)ccc3n2)cc1OC
Activity [1]: Active
Activity [2]: Active
Activity [3]: Active

COc1ccc(-c2cn3cc(C4=CCN(S(=O)(=O)c5ccc(C(C)=O)cc5)CC4)ccc3n2)cc1OC
Activity [1]: Active
Activity [2]: Active
Activity [3]: Active

COc1ccc(-c2cn3cc(C4=CCN(C(=O)c5cccc(C(F)(F)F)c5)CC4)ccc3n2)cc1OC
selectivity ratio at 48 h [4]: 10 to 14
IC50 [5]: 68.4 µM
IC50 [6]: 4.86 µM
Activity [1]: Active
selectivity ratio at 48 h [7]: 10 to 14
IC50 [8]: 7.89 µM
Activity [2]: Active
Activity [3]: Active
IC50 [9]: 3.69 µM
selectivity ratio at 48 h [10]: 10 to 14

COc1ccc(-c2cn3cc(C4=CCN(S(=O)(=O)CCc5ccccc5)CC4)ccc3n2)cc1OC
selectivity ratio at 48 h [4]: 10 to 14
IC50 [5]: 70.3 µM
IC50 [6]: 8.98 µM
Activity [1]: Active
selectivity ratio at 48 h [7]: 10 to 14
IC50 [8]: 8.08 µM
Activity [2]: Active
Activity [3]: Active
IC50 [9]: 7.69 µM
selectivity ratio at 48 h [10]: 10 to 14

CCS(=O)(=O)N1CC=C(c2ccc3nc(-c4ccc(OC)c(OC)c4)cn3c2)CC1
Activity [1]: Active
Activity [2]: Active
Activity [3]: Active

COc1ccc(-c2cn3cc(C4=CCN(S(=O)(=O)c5ccc([N+](=O)[O-])cc5)CC4)ccc3n2)cc1OC
Activity [1]: Active
Activity [2]: Active
Activity [3]: Active

COc1ccc(-c2cn3cc(C4=CCN(S(=O)(=O)C5CCCC5)CC4)ccc3n2)cc1OC
selectivity ratio at 48 h [4]: 10 to 14
IC50 [5]: 102 µM
IC50 [6]: 6.47 µM
Activity [1]: Active
selectivity ratio at 48 h [7]: 10 to 14
Activity [11]: 35.4%
IC50 [8]: 7.69 µM
Activity [12]: 55.6%
Activity [2]: Active
Activity [3]: Active
IC50 [9]: 6.47 µM
selectivity ratio at 48 h [10]: 10 to 14

CCCS(=O)(=O)N1CC=C(c2ccc3nc(-c4ccc(OC)c(OC)c4)cn3c2)CC1
Activity [1]: Active
Activity [2]: Active
Activity [3]: Active

COc1ccc(-c2cn3cc(C4=CCN(C(=O)c5ccc(F)cc5)CC4)ccc3n2)cc1OC
Activity [1]: Active
Activity [2]: Active
Activity [3]: Active

COc1ccc(-c2cn3cc(C4=CCN(S(=O)(=O)C(F)(F)F)CC4)ccc3n2)cc1OC
Activity [1]: Active
Activity [2]: Active
Activity [3]: Active

COc1ccc(-c2cn3cc(C4=CCN(S(=O)(=O)c5ccc(C(C)(C)C)cc5)CC4)ccc3n2)cc1OC
Activity [1]: Active
Activity [2]: Active
Activity [3]: Active

COc1ccc(-c2cn3cc(C4=CCN(S(=O)(=O)c5ccc(Br)cc5)CC4)ccc3n2)cc1OC
Activity [1]: Active
Activity [2]: Active
Activity [3]: Active

COc1ccc(-c2cn3cc(C4=CCN(C(=O)C5CC5)CC4)ccc3n2)cc1OC
selectivity ratio at 48 h [4]: 10 to 14
IC50 [5]: 77.5 µM
IC50 [6]: 15.8 µM
Activity [1]: Active
selectivity ratio at 48 h [7]: 10 to 14
IC50 [8]: 19.4 µM
Activity [2]: Active
Activity [3]: Active
IC50 [9]: 9.14 µM
selectivity ratio at 48 h [10]: 10 to 14

COc1ccc(-c2cn3cc(C4=CCN(C(=O)c5ccc(F)cc5F)CC4)ccc3n2)cc1OC
Activity [1]: Active
Activity [2]: Active
Activity [3]: Active

COc1ccc(-c2cn3cc(C4=CCN(C(=O)COCc5ccccc5)CC4)ccc3n2)cc1OC
Activity [1]: Active
Activity [2]: Active
Activity [3]: Active

COc1ccc(-c2cn3cc(C4=CCN(C(=O)c5cccc(F)c5)CC4)ccc3n2)cc1OC
Activity [1]: Active
Activity [2]: Active
Activity [3]: Active

COc1ccc(-c2cn3cc(C4=CCN(C(=O)N(C)C)CC4)ccc3n2)cc1OC
Activity [1]: Active
Activity [2]: Active
Activity [3]: Active

Nc1ccccc1NC(=O)c1cnccn1
IC50 [6]: 28.3 µM
IC50 [8]: 34.6 µM
IC50 [9]: 29.1 µM

COc1ccc(-c2cn3cc(C4=CCN(C(=O)c5ccccc5F)CC4)ccc3n2)cc1OC
Activity [1]: Active
Activity [2]: Active
Activity [3]: Active

COc1ccc(-c2cn3cc(C4=CCN(S(=O)(=O)C5CC5)CC4)ccc3n2)cc1OC
Activity [1]: Active
Activity [2]: Active
Activity [3]: Active

COc1ccc(-c2cn3cc(C4=CCN(C(=O)C(F)(F)F)CC4)ccc3n2)cc1OC
Activity [1]: Active
Activity [2]: Active
Activity [3]: Active

COc1ccc(-c2cn3cc(C4=CCN(C(C)=O)CC4)ccc3n2)cc1OC
Activity [1]: Active
Activity [2]: Active
Activity [3]: Active

C=CC(=O)N1CC=C(c2ccc3nc(-c4ccc(OC)c(OC)c4)cn3c2)CC1
Activity [1]: Active
Activity [2]: Active
Activity [3]: Active

COc1ccc(S(=O)(=O)N2CC=C(c3ccc4nc(-c5ccc(OC)c(OC)c5)cn4c3)CC2)cc1
Activity [1]: Active
Activity [2]: Active
Activity [3]: Active

COc1ccc(-c2cn3cc(C4=CCN(S(=O)(=O)C5CCCCC5)CC4)ccc3n2)cc1OC
selectivity ratio at 48 h [4]: 10 to 14
IC50 [5]: 75 µM
IC50 [6]: 9.99 µM
Activity [1]: Active
selectivity ratio at 48 h [7]: 10 to 14
IC50 [8]: 11.1 µM
Activity [2]: Active
Activity [3]: Active
IC50 [9]: 4.49 µM
selectivity ratio at 48 h [10]: 10 to 14

COc1ccc(-c2cn3cc(C4=CCN(C(=O)c5ccccn5)CC4)ccc3n2)cc1OC
Activity [1]: Active
Activity [2]: Active
Activity [3]: Active

COc1ccc(-c2cn3cc(C4=CCN(S(=O)(=O)c5ccc(Br)s5)CC4)ccc3n2)cc1OC
Activity [1]: Active
Activity [2]: Active
Activity [3]: Active

COc1ccc(-c2cn3cc(C4=CCN(C(=O)c5cccs5)CC4)ccc3n2)cc1OC
selectivity ratio at 48 h [4]: 10 to 14
IC50 [5]: 98.1 µM
IC50 [6]: 16 µM
Activity [1]: Active
selectivity ratio at 48 h [7]: 10 to 14
IC50 [8]: 19.5 µM
Activity [2]: Active
Activity [3]: Active
IC50 [9]: 5.2 µM
selectivity ratio at 48 h [10]: 10 to 14

COc1ccc(-c2cn3cc(C4=CCN(C(=O)C5CCCCC5)CC4)ccc3n2)cc1OC
selectivity ratio at 48 h [4]: 10 to 14
IC50 [5]: 72.1 µM
IC50 [6]: 8.06 µM
Activity [1]: Active
selectivity ratio at 48 h [7]: 10 to 14
IC50 [8]: 10.9 µM
Activity [2]: Active
Activity [3]: Active
IC50 [9]: 7.31 µM
selectivity ratio at 48 h [10]: 10 to 14
